The target in assay [1] is T1, AEA-DA lipid probe targets in Neuro2a cells (Mus musculus, UniProt O08749).
T1 sequence (O08749 36-509): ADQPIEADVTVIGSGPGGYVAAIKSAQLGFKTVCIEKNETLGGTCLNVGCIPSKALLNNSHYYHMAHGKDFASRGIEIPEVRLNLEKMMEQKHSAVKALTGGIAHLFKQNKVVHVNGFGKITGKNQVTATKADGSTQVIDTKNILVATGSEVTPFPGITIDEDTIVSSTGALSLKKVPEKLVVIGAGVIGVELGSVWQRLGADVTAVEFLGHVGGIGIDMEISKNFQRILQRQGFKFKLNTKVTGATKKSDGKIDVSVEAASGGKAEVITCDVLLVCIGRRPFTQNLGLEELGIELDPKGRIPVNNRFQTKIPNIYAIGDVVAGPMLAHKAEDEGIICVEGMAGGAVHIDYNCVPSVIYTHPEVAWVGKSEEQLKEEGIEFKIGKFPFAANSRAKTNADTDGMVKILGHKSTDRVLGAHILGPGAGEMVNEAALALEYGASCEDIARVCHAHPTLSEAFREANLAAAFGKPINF

Assay [2] has as its target AEA-DA lipid probe targets in Neuro2a cells (Mus musculus, UniProt P08113).
Assay [3] deals with T2, AEA-DA lipid probe targets in Neuro2a cells (Mus musculus, UniProt Q03517).
T2 sequence (Q03517 31-617): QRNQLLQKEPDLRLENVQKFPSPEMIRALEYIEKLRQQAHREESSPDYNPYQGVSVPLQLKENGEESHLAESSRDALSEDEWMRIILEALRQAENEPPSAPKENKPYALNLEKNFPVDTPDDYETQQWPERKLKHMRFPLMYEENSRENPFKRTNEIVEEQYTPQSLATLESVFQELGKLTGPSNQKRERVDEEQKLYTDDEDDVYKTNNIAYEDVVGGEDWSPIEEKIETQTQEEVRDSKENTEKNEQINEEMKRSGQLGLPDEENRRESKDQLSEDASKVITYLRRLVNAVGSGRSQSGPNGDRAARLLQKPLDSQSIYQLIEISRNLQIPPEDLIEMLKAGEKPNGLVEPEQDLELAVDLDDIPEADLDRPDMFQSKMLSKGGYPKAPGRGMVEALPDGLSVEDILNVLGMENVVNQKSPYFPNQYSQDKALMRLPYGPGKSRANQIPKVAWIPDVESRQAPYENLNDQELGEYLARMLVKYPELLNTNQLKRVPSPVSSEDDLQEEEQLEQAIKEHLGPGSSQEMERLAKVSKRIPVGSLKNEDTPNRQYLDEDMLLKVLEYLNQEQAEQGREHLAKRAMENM

Assay [4] deals with T3, AEA-DA lipid probe targets in Neuro2a cells (Mus musculus, UniProt Q60930).
T3 sequence (Q60930 1-295): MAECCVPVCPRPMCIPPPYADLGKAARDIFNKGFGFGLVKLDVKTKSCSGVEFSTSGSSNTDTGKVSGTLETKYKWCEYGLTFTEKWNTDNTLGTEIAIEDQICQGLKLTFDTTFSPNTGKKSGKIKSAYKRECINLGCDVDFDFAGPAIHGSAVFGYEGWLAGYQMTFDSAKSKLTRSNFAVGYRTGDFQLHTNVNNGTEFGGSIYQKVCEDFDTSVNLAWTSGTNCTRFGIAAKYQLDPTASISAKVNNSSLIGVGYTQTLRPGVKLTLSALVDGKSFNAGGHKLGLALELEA
As to conditions: Neuro2a cells, AEA-DA probe.

For assay [5], the target named is T4, AEA-DA lipid probe targets in Neuro2a cells (Mus musculus, UniProt Q8BTV1).
T4 sequence (Q8BTV1 42-347): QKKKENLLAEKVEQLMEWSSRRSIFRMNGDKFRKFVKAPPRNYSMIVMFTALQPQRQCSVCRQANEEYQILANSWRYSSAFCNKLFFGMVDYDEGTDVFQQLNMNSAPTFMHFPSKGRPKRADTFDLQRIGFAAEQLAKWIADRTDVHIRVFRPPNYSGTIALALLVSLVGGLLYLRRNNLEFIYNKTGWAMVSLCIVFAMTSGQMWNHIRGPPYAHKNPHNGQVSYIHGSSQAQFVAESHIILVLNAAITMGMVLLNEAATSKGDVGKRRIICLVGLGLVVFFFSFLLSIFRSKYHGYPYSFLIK

The target in assay [6] is T5, AEA-DA lipid probe targets in Neuro2a cells (Mus musculus, UniProt Q8C0L0).
T5 sequence (Q8C0L0 21-335): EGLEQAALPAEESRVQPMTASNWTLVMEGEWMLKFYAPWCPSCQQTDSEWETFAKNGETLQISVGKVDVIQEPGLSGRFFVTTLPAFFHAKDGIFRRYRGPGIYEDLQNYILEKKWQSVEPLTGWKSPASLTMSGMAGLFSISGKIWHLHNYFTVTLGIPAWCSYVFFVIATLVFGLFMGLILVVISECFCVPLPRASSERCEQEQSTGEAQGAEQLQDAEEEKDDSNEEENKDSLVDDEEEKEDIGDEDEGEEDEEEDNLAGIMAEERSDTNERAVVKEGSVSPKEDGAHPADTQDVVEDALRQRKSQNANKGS

Assay [7] addresses T6, AEA-DA lipid probe targets in Neuro2a cells (Mus musculus, UniProt Q9DC61).
T6 sequence (Q9DC61 34-524): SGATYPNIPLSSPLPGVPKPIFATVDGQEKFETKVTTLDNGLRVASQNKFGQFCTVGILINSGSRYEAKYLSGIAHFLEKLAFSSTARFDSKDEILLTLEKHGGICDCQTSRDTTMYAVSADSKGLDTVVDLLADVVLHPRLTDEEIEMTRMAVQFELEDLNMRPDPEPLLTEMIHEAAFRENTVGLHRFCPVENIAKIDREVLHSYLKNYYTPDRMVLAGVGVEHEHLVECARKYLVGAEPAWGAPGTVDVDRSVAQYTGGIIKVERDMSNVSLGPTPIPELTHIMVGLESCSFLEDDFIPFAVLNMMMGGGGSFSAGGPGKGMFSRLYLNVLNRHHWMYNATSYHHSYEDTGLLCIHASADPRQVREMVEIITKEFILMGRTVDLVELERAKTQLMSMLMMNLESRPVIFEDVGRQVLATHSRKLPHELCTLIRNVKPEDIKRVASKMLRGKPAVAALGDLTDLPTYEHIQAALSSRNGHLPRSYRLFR

Structures are written as SMILES. Where two headings read alike, the source gives them in different places.

Sequence of AEA-DA lipid probe targets in Neuro2a cells (Mus musculus, UniProt P08113) (P08113 22-802): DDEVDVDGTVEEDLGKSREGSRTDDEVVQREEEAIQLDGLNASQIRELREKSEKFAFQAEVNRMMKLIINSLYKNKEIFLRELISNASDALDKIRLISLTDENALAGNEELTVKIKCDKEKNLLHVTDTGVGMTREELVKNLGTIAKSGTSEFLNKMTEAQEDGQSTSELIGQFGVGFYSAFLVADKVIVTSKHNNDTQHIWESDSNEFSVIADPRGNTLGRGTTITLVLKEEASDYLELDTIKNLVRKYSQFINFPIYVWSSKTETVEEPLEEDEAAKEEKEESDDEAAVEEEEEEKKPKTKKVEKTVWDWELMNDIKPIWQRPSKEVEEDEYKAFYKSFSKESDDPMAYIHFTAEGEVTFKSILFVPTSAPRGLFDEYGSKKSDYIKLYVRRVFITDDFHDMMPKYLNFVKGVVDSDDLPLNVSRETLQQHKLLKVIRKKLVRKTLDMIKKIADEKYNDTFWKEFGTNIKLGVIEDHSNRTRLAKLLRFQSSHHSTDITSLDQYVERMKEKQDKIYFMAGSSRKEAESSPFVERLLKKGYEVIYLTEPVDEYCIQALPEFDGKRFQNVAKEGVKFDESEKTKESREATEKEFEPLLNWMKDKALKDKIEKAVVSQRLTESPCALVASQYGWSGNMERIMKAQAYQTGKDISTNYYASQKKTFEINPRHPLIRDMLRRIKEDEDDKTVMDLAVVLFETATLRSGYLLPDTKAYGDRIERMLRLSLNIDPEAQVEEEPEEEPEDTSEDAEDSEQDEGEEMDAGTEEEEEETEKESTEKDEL

For the compound `C=CCN(C)CCCCCCOc1ccc(C(=O)c2ccc(Br)cc2)c(F)c1` [Ro 48-8071, reference compound], the “SILAC ratio Dld” value in assay [1] (competitor 25 μM) was determined as 0.8. Also, in assay [2] (competitor 25 μM), the “SILAC ratio Hsp90b1” value stood at 0.9. The “SILAC ratio, Scg2” value in assay [3] (competitor 25 μM) came out at 1.1. Moreover, the “SILAC ratio, VDAC2 (P45880)” value in assay [4] (competitor 25 μM) was 1.0. In assay [5] (competitor 25 μM), the “SILAC ratio, Tusc3” value is listed as 1.2. Moreover, in assay [6] (competitor 25 μM), the “SILAC ratio Tmx4” value came to 1.2. Besides, the “SILAC ratio, Pmpca” value in assay [7] (competitor 25 μM) stood at 0.9.

As to `CN1CCN(C(=O)c2[nH]c3ccc([N+](=O)[O-])cc3c2-c2ccccc2)CC1` [MJN228, (4-Methylpiperazin-1-yl)(5-nitro-3-phenyl-1H-indol-2-yl)methanone], the “SILAC ratio Dld” value in assay [1] (competitor 10 μM) stood at 1.2; in assay [1] (competitor 25 μM) it was 1.2; in assay [1] (competitor 50 μM) it was 1.2; in assay [1] (competitor 100 μM), 1.1. In addition, the “SILAC ratio Hsp90b1” value in assay [2] (competitor 10 μM) was 1.3; in assay [2] (competitor 25 μM), 1.3; in assay [2] (competitor 50 μM), 1.5; in assay [2] (competitor 100 μM) it was 1.4. Besides, the “SILAC ratio, Scg2” value in assay [3] (competitor 10 μM) is 1.3; in assay [3] (competitor 25 μM), 1.5; in assay [3] (competitor 50 μM), 1.2; in assay [3] (competitor 100 μM) it was 1.1. The “SILAC ratio, VDAC2 (P45880)” value in assay [4] (competitor 25 μM) is recorded as 1.0. The “SILAC ratio, Tusc3” value is reported as 1.2 in assay [5] (competitor 10 μM), 1.6 in assay [5] (competitor 25 μM), 1.6 in assay [5] (competitor 50 μM) and 2.6 in assay [5] (competitor 100 μM). Besides, the “SILAC ratio Tmx4” value in assay [6] (competitor 10 μM) is given as 1.0; in assay [6] (competitor 25 μM), 1.3; in assay [6] (competitor 50 μM) it was 1.3; in assay [6] (competitor 100 μM) it was 1.6. In addition, the “SILAC ratio, Pmpca” value in assay [7] (competitor 10 μM) came to 1.2; in assay [7] (competitor 25 μM), 1.4; in assay [7] (competitor 50 μM) it was 1.4; in assay [7] (competitor 100 μM), 1.5.

With `CCCCC/C=C\C/C=C\C/C=C\C/C=C\CCCC(=O)NCCO` [AEA, anandamide, reference compound], the “SILAC ratio Dld” value in assay [1] (competitor 200 μM) came to 1.1. The “SILAC ratio Hsp90b1” value in assay [2] (competitor 200 μM) was determined as 1.1. In addition, the “SILAC ratio, Scg2” value in assay [3] (competitor 200 μM) is 1.2. In addition, the “SILAC ratio, VDAC2 (P45880)” value in assay [4] (competitor 200 μM) was 1.2. For the same compound, the “SILAC ratio, Tusc3” value in assay [5] (competitor 200 μM) is listed as 1.7. The “SILAC ratio Tmx4” value in assay [6] (competitor 200 μM) is given as 1.9. For the same compound, the “SILAC ratio, Pmpca” value in assay [7] (competitor 200 μM) was found to be 1.9.

Consider `CN1CCN(C(=O)c2c(-c3ccccc3)c3cc([N+](=O)[O-])ccc3n2C)CC1` [KML110, (1-Methyl-5-nitro-3-phenyl-1H-indol-2-yl)(4-methylpiperazin-1-yl)methanone], for which the “SILAC ratio Dld” value in assay [1] (competitor 25 μM) is 1.3. In addition, the “SILAC ratio Hsp90b1” value in assay [2] (competitor 25 μM) worked out at 1.4. Also, the “SILAC ratio, Scg2” value in assay [3] (competitor 25 μM) is on record as 1.4. Moreover, in assay [5] (competitor 25 μM), the “SILAC ratio, Tusc3” value turned out to be 1.6. The “SILAC ratio Tmx4” value in assay [6] (competitor 25 μM) is reported as 1.4. The “SILAC ratio, Pmpca” value in assay [7] (competitor 25 μM) is reported as 1.6.

With `O=C(/C=C/c1cccnc1)NCCCCC1CCN(C(=O)c2ccccc2)CC1` [FK-866, reference compound], the “SILAC ratio Dld” value in assay [1] (competitor 25 μM) was determined as 1.1. Besides, in assay [2] (competitor 25 μM), the “SILAC ratio Hsp90b1” value was 1.2. Also, the “SILAC ratio, Scg2” value in assay [3] (competitor 25 μM) is 1.0. For the same compound, in assay [4] (competitor 25 μM), the “SILAC ratio, VDAC2 (P45880)” value is 1.0. Moreover, in assay [5] (competitor 25 μM), the “SILAC ratio, Tusc3” value is on record as 1.3. In assay [6] (competitor 25 μM), the “SILAC ratio Tmx4” value was 1.0. The “SILAC ratio, Pmpca” value in assay [7] (competitor 25 μM) turned out to be 1.2.

The record behind these values is patent US10168342B2, “Lipid probes and uses thereof” (THE SCRIPPS RESEARCH INSTITUTE, priority 2015, dated 2019).
